Source: PubChem BioAssay AID504322 (Emory University Molecular Libraries Screening Center, 2011)
pIC50: −log10 of the molar value. The source made the active and inactive calls. How the calls were made is not given here.

Tested on: CHOP reporter cell assay, percent of control
Assay: CHOP reporter inhibitor potency, dose response, cell-based (AID 504322);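 further: CHO cells carrying a CHOP reporter stimulated with tunicamycin to induce ER stress; potency is for inhibition of the stress-induced reporter signal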

## Oc1ccc(Br)cc1-c1nc2cnccn2c1NC1CCCCC1
  IC50: > 10 µM (inactive)

## CC(C)C[C@H](NC(=O)OC(C)(C)C)C(=O)N/N=C/C1=Cc2ccccc2OC1C (stereo not given in full)
  pIC50: 5.64

## Nc1c(N(C(=O)Nc2ccc(Cl)c(Cl)c2)C2CCCC2)c(=O)[nH]c(=O)n1Cc1ccccc1
  IC50: > 10 µM (inactive)

## CCN(CCO)c1ncnc2c1sc1nc(CC(C)C)c3c(c12)CC(C)(C)OC3
  IC50: 9.11 µM (inactive)

## Oc1ccc(Br)cc1-c1cc(-c2ccccc2F)[nH]n1
  IC50: > 10 µM (inactive)

## Cc1ccc(C)c(NC(=S)NC(NC(=O)/C=C/c2ccccc2)C(Cl)(Cl)Cl)c1 (stereo not given)
  IC50: 9.63 µM (inactive)

## CC(C)Cn1c2c(c(=O)[nH]c1=O)C(C(F)(F)F)(C(F)(F)F)N=C(CCC1CCCCC1)N2
  pIC50: 5.63

## Cc1ccccc1N1CCN(C(=O)c2ccc(Oc3ccc(C(F)(F)F)cn3)cc2)CC1
  IC50: 3.48 µM (inactive)

## COc1ccc(N=c2oc3ccc(OC)cc3cc2-c2nc3ccccc3[nH]2)cc1
  IC50: 9.72 µM (inactive)

## CC(C)(C)c1ccc(NC(=O)Nc2ccc(F)cc2)cc1
  IC50: > 10 µM (inactive)

## COc1cccc(C(=O)C(C#N)=C(SC)SC)c1
  IC50: > 10 µM (inactive)

## CCCCCCCCCCCCCCCC[n+]1cccc(C(=O)N(CC)CC)c1
  IC50: 5.06 µM (inactive)

## CCCCCCOC(=O)Nc1ccc(S(=O)(=O)Nc2cccc([N+](=O)[O-])c2)cc1
  IC50: > 10 µM (inactive)

## NC(=O)CC(NC(=O)Cc1cccc2ccccc12)c1ccc(NCc2ccc(F)cc2)c([N+](=O)[O-])c1 (stereo not given)
  IC50: > 10 µM (inactive)

## CC(C)(C)OC(=O)NCCc1nnc(S(=O)(=O)Cc2ccc(Cl)cc2Cl)o1
  IC50: > 10 µM (inactive)

## O=C(COCC(=O)Nc1cccc(C(F)(F)F)c1)Nc1cccc(C(F)(F)F)c1
  IC50: 5.44 µM (inactive)

## Oc1cccc(-c2nc3c4c(ncn3n2)-c2ccccc2CC42CCCC2)c1
  IC50: 5.25 µM (inactive)

## COc1cc(/C=C/c2nc(N)nc(-c3ccccc3O)n2)cc(OC)c1OC
  IC50: > 10 µM (inactive)

## CCc1ccc2c(c1)C(c1ccc([N+](=O)[O-])cc1)=NNC(c1ccc(C)cc1)=N2
  IC50: > 10 µM (inactive)

## COC(=O)c1sc(-c2ccc(C(C)(C)C)cc2)cc1NC(=O)c1ccccc1C(=O)O
  IC50: 8.29 µM (inactive)

## CCCCCc1c(C)nc(NCc2ccccc2)[nH]c1=O
  pIC50: 5.44

## O=S(=O)(N/N=C/c1ccc(Cl)cc1)c1ccc(Cc2ncc(C(F)(F)F)cc2Cl)s1
  IC50: 6.37 µM (inactive)

## Nc1c(S(=O)(=O)c2cccc(Cl)c2)c2nc3ccccc3nc2n1/N=C/c1ccc(O)c(O)c1
  IC50: 4.97 µM (inactive)

## Cc1cc(-c2[nH]nc3c2C(c2ccc(Cl)cc2)C(C#N)=C(N)O3)c(C)s1 (stereo not given)
  IC50: 7.25 µM (inactive)

## C/C(=C\c1ccco1)C1C(C#N)=C(N)Oc2n[nH]c(-c3ccc(C)cc3)c21 (stereo not given)
  IC50: > 10 µM (inactive)

## C=C(C)C(=O)OC1(C(F)(F)F)Oc2cc(C)ccc2NC1=O (stereo not given)
  IC50: 5.82 µM (inactive)

## O=S(=O)(NC1CC1)c1ccc(S(=O)(=O)N2CCCC3(CCCCC3)C2)cc1
  IC50: 6.79 µM (inactive)

## Cc1ccc(C(C)C)c(OCC(=O)N/N=C/C2CCCCC2)c1
  IC50: 9.65 µM (inactive)

## Clc1nssc1=Nc1ccc(Br)cc1
  IC50: 6.25 µM (inactive)

## C/C=C(\C)C(=O)OC1C(C)=C2C(C1OC(=O)CCCCC)C(C)(OC(C)=O)CC(OC(=O)CCC)C1(O)C2OC(=O)C1(C)O (stereo not given)
  pIC50: > 6.80

## Cc1ccc(-c2ccc(/C=C(\C#N)C(=O)Nc3cc(C)nn3-c3ccccc3)o2)cc1
  IC50: 6.7 µM (inactive)

## Cc1nc2c(=O)n(C)c(=O)n(C)c2nc1Cl
  IC50: 3.79 µM (inactive)

## CC1(c2ccc(OC(F)F)cc2)NC(=O)N(/N=C/c2c(O)ccc3ccccc23)C1=O (stereo not given)
  IC50: 8.25 µM (inactive)

## Cc1ccc(/C=C2\SC(=S)N(CCCC(=O)Nc3ccc(O)cc3)C2=O)cc1
  pIC50: 6.77

## CN1CCN(CC(=O)N2CCn3c4c(c5cc(C6CCCCC6)ccc53)CCCC42)CC1 (stereo not given)
  IC50: 9.6 µM (inactive)

## CCOc1cc(/C=C2/C(=O)ON=C2C)ccc1OCc1ccc(F)cc1
  IC50: 9.5 µM (inactive)

## CCOc1cc(/C=N/NC(=O)COc2cccc(C)c2)ccc1OC(=O)c1cccs1
  IC50: > 10 µM (inactive)

## O=C(Nc1cc(Cl)ccc1O)c1cc2n(n1)C(C(F)(F)F)CC(c1ccc3c(c1)OCO3)N2 (stereo not given)
  pIC50: 5.71

## CC1=NN(c2nc(-c3ccc(C)cc3)cs2)C(=O)C1N=Nc1ccccc1O (stereo not given)
  IC50: 6.66 µM (inactive)

## Cc1nn(-c2ccccc2Cl)c(Cl)c1/C=N/Nc1nc2ccccc2s1
  pIC50: > 6.80

## CCOc1cccc(C(=O)Nc2cccc(-c3nnc(-c4ccc(C)cc4)o3)c2)c1
  pIC50: 5.58

## CC(C)(C)c1nnc(N/N=C/c2cc(Br)ccc2O)n(N)c1=O
  IC50: 5.11 µM (inactive)

## O=C(Nc1ccccc1NC(=O)NC1CCCCC1)NC1CCCCC1
  IC50: 8.46 µM (inactive)

## N#CC(C#N)=C1C=CC=CN1/C(=C\c1ccccc1Cl)C(=O)c1ccccc1
  IC50: > 10 µM (inactive)

## O=S(=O)(NCC(Nc1ccc(Cl)cc1)c1ccccc1)c1ccc(Cl)cc1 (stereo not given)
  IC50: 6.69 µM (inactive)

## CC(C)(C)C(=O)c1no[n+]([O-])c1/C(=N/O)C(C)(C)C
  IC50: 7.23 µM (inactive)

## O=C(ONc1ccc(N=NC(=O)c2ccccc2O)cc1)c1ccccc1
  IC50: > 10 µM (inactive)

## Fc1ccc(Nc2nc(NCc3ccco3)c3ccccc3n2)cc1
  IC50: > 10 µM (inactive)

## CCN(CC)S(=O)(=O)c1cccc(NC(=O)Nc2cccc(C(F)(F)F)c2)c1
  IC50: 8.55 µM (inactive)

## CCOC(=O)COc1ccccc1/C=C\[N+](=O)[O-]
  IC50: 9.51 µM (inactive)

## Cc1ccc(N2C(=O)NC(=O)/C(=C\C=C\c3ccco3)C2=O)cc1
  IC50: 9.55 µM (inactive)

## Cc1ccc(-c2nc3cc(NS(=O)(=O)c4ccc(C)cc4)ccc3o2)cc1
  IC50: 5.63 µM (inactive)

## Cc1ccc(/C=N/N2C(=S)SC(C)(C)C2N(O)C(=O)Nc2ccc([N+](=O)[O-])cc2)cc1 (stereo not given)
  IC50: 2.67 µM (inactive)

## CC(/C=C1\SC(=O)N(CCCC(=O)O)C1=O)=C\c1ccccc1
  pIC50: > 6.80

## O=[N+]([O-])c1ccc(S(=O)(=O)CC(CN2CCCCC2)N2CCCCC2)cc1 (stereo not given)
  IC50: 5.93 µM (inactive)

## C=C(C)COc1ccc(-c2n[nH]c(C)c2Oc2ccccc2OC)c(O)c1
  IC50: 8.82 µM (inactive)

## CC(C)c1ccc(C2C3CSCC=C3C(C#N)=C(N)C2(C#N)C#N)cc1 (stereo not given)
  IC50: 9.55 µM (inactive)

## CCCC(=O)NC(NC(=S)Nc1ccc(N=Nc2ccccc2)cc1)C(Cl)(Cl)Cl (stereo not given)
  pIC50: 5.14

## Cc1nn(-c2ccc(C(F)(F)F)cn2)c(C)c1Oc1ccccc1O
  IC50: 5.94 µM (inactive)

## CC1=CC2/C=C(\C)CCC(O)C(O)/C=C/C(=O)C23C(=O)NC(CC(C)C)C3C1C (stereo not given)
  IC50: 9.69 µM (inactive)

## CS(=O)(=O)c1ccc(S(=O)CC(=O)OCc2ccccc2)c([N+](=O)[O-])c1 (stereo not given)
  IC50: > 10 µM (inactive)

## Cc1ccc(/C=N/n2c(C3CCCCC3)n[nH]c2=S)s1
  IC50: 5.3 µM (inactive)

## O=C1C=CC(=O)N1N(c1ccccc1)c1ccccc1
  IC50: > 10 µM (inactive)

## COc1ccc(NS(=O)(=O)c2ccc(O)c(NC(=O)c3cc4c(C)nn(-c5ccc(F)cc5)c4s3)c2)cc1
  IC50: 6.99 µM (inactive)

## Cc1cccc(N2CCN(C(=O)c3c(C)nn(Cc4ccccc4Cl)c3C)CC2)c1C
  IC50: 9.26 µM (inactive)

## Nc1nnnn1/N=C/C(Br)=C/c1ccccc1
  IC50: 9.72 µM (inactive)

## Fc1ccc(-c2nn(-c3ccccc3)cc2CNCc2ccccc2)cc1
  IC50: 9.62 µM (inactive)

## O=c1c(Br)c(Br)cnn1-c1ccccc1
  IC50: 4.97 µM (inactive)

## Cc1ccc2nc(-c3cc(-c4ccccc4)no3)cn2c1
  IC50: 9.74 µM (inactive)

## N=C(N)c1c(O)n(C2CCCCC2)c(=O)n(C2CCCCC2)c1=O
  pIC50: 5.56

## C=C1C(=O)O[C@@H]2C[C@@H](C)[C@@H]3C=CC(=O)[C@@]3(C)[C@@H](OC(C)=O)[C@H]12
  pIC50: 5.61

## CCOC(=O)c1c(C(C)(C)C)oc2ccc(O)cc12
  IC50: 9.38 µM (inactive)

## NC(=O)c1cc(-c2ccccc2)nc(N2CCCCCC2)n1
  IC50: 9.62 µM (inactive)

## CC(C)c1ccc(O)c(NC(=S)NC(=O)CCc2ccccc2)c1
  IC50: 2.97 µM (inactive)

## CC(C)=CCc1c(O)c(CC=C(C)C)c2c(c1O)C(=O)CC(c1ccc(O)cc1)O2 (stereo not given)
  IC50: 9.61 µM (inactive)

## COc1c(CC=C(C)C)cc(C2CC(=O)c3c(O)cc(O)cc3O2)cc1CC=C(C)C (stereo not given)
  IC50: > 10 µM (inactive)

## CC(C)(C)c1ccc(CN2N=Nc3ccccc3S2(=O)=O)cc1
  IC50: 9.3 µM (inactive)

## CC(C)Cn1c(N)c(C(=O)COC(=O)CC23CC4CC(CC(C4)C2)C3)c(=O)n(C)c1=O
  pIC50: 6.09

## Cc1cc(-c2n[nH]c(=S)n2/N=C/C(Br)=C/c2ccccc2)n[nH]1
  IC50: > 10 µM (inactive)

## C#CC(=O)N(c1cc(OC)ccc1OC)C(C(=O)NC1CCCC1)c1cccs1 (stereo not given)
  IC50: > 10 µM (inactive)

## Cc1ccc(S(=O)(=O)CC#CCOC(=O)c2ccc([N+](=O)[O-])cc2)cc1
  IC50: > 10 µM (inactive)

## Cc1cc2c(cc1C)CSC(c1c(O)ccc3ccccc13)SC2
  IC50: > 10 µM (inactive)

## OC1(c2cccc(C(F)(F)F)c2)CCN(c2ncnc3c2[nH]c2ccc(F)cc23)CC1
  IC50: 4.54 µM (inactive)

## CCCCn1c(N2CCC(Cc3ccccc3)CC2)nc2c1c(=O)[nH]c(=O)n2C
  IC50: 6.06 µM (inactive)

## C/C(=N\NC(=O)COc1ccc(C(C)(C)C)cc1)c1ccc(N2CCOCC2)cc1
  IC50: 9.41 µM (inactive)

## O=C1N(c2ccccc2)C[C@@H]2C[C@@H](c3cccs3)N3CCC[C@@]123
  IC50: 5.69 µM (inactive)

## Fc1c(F)c(C(F)(F)F)c(F)c(F)c1N/N=C\c1cccs1
  pIC50: 5.32

## Cc1cc(C)n(-c2nc(Nc3ccccc3C(F)(F)F)nc(-n3nc(C)cc3C)n2)n1
  IC50: 3.93 µM (inactive)

## Cc1cc(/C=N/n2cnnc2)c(C)n1-c1ccc(OCc2ccc(F)cc2)cc1
  IC50: 0.67 µM (inactive)

## O=C(NNc1ccccc1Br)C(O)(c1cccc(C(F)(F)F)c1)c1cccc(C(F)(F)F)c1
  pIC50: 5.67

## O=C(O)CSCC(=O)Nc1ccc(C2CCCCC2)cc1
  pIC50: 6.27

## Cc1cccc(/C=C/c2nc3ccccc3c(=O)[nH]2)c1
  IC50: > 10 µM (inactive)

## CC(C)Cn1c(=O)c2ccccc2n2c(SCC(=O)N3c4ccccc4CC3C)nnc12 (stereo not given)
  IC50: > 10 µM (inactive)

## O=C(c1ccc2c3c(cccc13)C(=O)N(O)C2=O)N1CCCCC1
  pIC50: 5.72

## COCCn1c(=NC(=O)/C=C/c2cccs2)sc2cc(NC(C)=O)ccc21
  IC50: > 10 µM (inactive)
